Assay [1] deals with Tyrosine-protein kinase Fer (Homo sapiens) (UniProt P16591). Description: Inhibition of FER (unknown origin) assessed as residual activity at 100 nM by KINOMEscan analysis relative to control.
Assay [2] deals with T1, Mitogen-activated protein kinase kinase kinase 6 (Homo sapiens) (UniProt O95382).
T1 sequence (whole entry): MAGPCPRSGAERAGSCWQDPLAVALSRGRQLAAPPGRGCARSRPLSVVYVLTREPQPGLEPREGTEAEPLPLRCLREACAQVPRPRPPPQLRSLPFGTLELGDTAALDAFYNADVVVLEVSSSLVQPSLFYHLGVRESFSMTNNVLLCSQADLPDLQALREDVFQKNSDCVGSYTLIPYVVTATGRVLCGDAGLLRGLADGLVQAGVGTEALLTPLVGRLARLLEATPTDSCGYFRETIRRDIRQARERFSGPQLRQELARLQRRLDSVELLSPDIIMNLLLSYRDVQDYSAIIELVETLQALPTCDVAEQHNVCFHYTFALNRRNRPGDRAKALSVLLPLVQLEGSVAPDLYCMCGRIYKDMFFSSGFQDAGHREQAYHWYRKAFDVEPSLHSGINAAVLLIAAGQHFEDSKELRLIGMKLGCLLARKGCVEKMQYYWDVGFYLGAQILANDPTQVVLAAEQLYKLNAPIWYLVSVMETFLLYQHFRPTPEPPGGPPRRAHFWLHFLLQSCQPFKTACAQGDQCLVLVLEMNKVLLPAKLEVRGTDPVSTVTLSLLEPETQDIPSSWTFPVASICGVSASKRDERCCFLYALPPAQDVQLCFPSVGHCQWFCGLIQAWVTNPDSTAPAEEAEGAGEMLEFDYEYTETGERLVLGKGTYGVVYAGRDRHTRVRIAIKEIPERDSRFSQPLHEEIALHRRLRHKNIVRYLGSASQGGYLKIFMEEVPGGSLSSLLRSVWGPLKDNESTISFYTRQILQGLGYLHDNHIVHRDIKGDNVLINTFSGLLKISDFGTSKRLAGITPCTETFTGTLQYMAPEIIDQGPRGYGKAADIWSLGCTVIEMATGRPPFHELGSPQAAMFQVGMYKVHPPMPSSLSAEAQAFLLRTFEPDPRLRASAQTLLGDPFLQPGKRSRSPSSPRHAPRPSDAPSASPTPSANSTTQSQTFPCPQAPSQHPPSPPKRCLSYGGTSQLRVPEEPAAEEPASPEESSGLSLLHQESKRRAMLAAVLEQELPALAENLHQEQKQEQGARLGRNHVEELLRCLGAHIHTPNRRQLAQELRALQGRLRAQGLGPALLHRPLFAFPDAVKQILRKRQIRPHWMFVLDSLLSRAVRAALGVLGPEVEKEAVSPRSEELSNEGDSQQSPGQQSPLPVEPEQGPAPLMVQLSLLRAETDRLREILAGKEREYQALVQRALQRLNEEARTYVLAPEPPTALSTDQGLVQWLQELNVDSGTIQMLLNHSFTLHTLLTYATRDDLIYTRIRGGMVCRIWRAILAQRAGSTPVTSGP
Put plainly: Inhibition of ASK2 (unknown origin) assessed as residual activity at 100 nM by KINOMEscan analysis relative to control.

Assay [3] concerns Receptor-type tyrosine-protein kinase FLT3 (Homo sapiens), P36888 [R834Q]. Put plainly: Inhibition of FLT3 R834Q mutant (unknown origin) assessed as residual activity at 100 nM by KINOMEscan analysis relative to control.
For assay [4], the target named is T2, Dual specificity mitogen-activated protein kinase kinase 4 (Homo sapiens) (UniProt P45985).
T2 sequence (whole entry): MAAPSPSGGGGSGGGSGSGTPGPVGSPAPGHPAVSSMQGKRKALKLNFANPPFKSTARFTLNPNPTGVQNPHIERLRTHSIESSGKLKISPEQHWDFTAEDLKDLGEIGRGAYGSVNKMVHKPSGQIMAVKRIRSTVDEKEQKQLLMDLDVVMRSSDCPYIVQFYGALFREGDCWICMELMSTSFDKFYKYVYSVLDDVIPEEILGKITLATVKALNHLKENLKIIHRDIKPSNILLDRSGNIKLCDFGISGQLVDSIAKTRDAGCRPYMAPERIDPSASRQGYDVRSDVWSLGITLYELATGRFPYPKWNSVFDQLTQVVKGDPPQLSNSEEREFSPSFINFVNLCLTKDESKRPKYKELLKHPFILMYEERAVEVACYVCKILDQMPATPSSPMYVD
Description: Inhibition of MEK4 (unknown origin) assessed as residual activity at 100 nM by KINOMEscan analysis relative to control.

Assay [5] concerns the target Glycogen synthase kinase-3 beta (Homo sapiens) (UniProt P49841). Description: Inhibition of GSK3B (unknown origin) assessed as residual activity at 100 nM by KINOMEscan analysis relative to control.
Assay [6] addresses T3, Tyrosine-protein kinase TXK (Homo sapiens) (UniProt P42681).
T3 sequence (whole entry): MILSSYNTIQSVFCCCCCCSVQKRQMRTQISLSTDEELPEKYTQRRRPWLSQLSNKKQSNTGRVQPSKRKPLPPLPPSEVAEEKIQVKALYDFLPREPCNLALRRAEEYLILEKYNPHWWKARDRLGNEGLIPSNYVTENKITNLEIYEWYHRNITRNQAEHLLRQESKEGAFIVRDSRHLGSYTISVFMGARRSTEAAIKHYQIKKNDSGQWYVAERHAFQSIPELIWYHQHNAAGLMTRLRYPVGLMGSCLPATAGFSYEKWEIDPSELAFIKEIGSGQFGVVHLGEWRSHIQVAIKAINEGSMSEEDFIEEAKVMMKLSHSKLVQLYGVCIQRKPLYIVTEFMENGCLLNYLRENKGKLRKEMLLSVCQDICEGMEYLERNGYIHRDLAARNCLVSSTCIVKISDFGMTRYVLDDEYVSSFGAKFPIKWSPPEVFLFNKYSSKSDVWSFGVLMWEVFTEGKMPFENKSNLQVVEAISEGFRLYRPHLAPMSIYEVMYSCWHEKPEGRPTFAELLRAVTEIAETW
Put plainly: Inhibition of TXK (unknown origin) assessed as residual activity at 100 nM by KINOMEscan analysis relative to control.

Assay [7] deals with Proto-oncogene tyrosine-protein kinase receptor Ret (Homo sapiens) (UniProt P07949). Description: Inhibition of RET (unknown origin) assessed as residual activity at 100 nM by KINOMEscan analysis relative to control.

The text below walks through data of ChEMBL document CHEMBL5678818, “Discovery of potent SOS1 inhibitors that block RAS activation via disruption of the RAS-SOS1 interaction” (Proc Natl Acad Sci U S A, 2019).

Each structure is given as a SMILES string.

Sequence of Tyrosine-protein kinase Fer (Homo sapiens) (P16591 whole entry, looked up): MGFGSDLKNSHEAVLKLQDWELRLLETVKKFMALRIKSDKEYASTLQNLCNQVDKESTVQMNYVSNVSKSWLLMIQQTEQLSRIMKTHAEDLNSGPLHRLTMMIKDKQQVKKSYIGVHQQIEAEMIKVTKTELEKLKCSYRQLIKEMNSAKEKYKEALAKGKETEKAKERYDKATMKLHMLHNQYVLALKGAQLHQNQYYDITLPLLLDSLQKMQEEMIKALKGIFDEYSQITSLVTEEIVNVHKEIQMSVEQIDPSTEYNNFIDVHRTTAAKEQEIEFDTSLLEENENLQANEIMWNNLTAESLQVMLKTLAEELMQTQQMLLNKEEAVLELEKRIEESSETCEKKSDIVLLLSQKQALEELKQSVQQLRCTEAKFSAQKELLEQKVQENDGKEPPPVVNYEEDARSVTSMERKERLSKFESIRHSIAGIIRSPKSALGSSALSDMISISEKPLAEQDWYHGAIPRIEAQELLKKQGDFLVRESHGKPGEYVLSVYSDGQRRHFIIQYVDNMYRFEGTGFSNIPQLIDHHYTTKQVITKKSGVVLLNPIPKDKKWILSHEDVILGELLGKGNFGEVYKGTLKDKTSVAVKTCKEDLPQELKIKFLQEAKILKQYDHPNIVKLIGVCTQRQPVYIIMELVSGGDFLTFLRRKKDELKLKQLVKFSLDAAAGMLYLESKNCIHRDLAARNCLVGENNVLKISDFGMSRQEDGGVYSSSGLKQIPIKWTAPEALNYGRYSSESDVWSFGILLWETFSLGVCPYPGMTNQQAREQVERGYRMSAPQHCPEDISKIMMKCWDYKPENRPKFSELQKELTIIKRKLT
Sequence of Proto-oncogene tyrosine-protein kinase receptor Ret (Homo sapiens) (P07949 whole entry): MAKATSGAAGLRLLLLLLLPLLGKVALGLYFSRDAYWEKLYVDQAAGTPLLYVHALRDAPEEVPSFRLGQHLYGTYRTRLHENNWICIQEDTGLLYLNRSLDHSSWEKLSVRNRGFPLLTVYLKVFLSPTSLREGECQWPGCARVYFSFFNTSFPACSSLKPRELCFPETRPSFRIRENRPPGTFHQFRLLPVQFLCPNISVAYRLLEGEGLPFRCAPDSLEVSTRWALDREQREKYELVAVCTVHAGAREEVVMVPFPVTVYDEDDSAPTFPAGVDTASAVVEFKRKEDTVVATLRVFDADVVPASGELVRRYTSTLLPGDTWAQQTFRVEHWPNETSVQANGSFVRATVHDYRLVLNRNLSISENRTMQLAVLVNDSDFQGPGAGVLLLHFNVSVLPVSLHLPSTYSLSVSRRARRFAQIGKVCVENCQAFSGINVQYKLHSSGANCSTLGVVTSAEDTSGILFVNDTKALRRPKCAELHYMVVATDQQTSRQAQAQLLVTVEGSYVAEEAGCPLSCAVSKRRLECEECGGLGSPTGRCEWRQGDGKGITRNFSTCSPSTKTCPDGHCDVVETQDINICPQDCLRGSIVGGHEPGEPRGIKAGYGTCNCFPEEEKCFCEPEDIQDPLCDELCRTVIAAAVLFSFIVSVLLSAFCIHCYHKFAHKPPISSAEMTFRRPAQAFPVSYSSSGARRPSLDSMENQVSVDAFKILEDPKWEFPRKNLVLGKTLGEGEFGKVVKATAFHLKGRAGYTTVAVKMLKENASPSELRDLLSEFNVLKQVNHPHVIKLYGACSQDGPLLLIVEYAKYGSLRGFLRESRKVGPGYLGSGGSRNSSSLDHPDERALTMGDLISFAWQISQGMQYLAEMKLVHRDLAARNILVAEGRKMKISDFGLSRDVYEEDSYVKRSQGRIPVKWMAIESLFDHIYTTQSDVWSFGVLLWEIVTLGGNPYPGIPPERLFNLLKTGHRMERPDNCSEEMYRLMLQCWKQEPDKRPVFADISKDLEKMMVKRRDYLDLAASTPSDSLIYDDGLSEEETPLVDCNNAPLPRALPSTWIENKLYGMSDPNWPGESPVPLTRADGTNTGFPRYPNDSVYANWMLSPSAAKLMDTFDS
Sequence of Glycogen synthase kinase-3 beta (Homo sapiens) (P49841 whole entry, looked up): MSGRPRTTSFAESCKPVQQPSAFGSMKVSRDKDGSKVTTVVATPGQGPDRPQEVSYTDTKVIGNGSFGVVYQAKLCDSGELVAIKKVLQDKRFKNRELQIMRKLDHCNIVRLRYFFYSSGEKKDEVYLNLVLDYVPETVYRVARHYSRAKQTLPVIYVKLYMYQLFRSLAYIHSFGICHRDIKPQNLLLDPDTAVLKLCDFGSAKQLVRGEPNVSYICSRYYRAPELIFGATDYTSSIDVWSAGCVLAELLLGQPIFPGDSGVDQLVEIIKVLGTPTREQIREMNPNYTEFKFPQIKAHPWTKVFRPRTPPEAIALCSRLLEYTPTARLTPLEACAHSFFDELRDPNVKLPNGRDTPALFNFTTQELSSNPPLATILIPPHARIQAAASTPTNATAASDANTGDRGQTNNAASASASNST

Take `COc1cc2ncnc(N[C@H](C)c3cccc4ccccc34)c2cc1OC`: the Activity in assay [1] turned out to be 100%; in assay [2], 71%; in assay [3] it was 93%; in assay [4], 93%; in assay [5] it was 94%; in assay [6] it was 67%. The Activity in assay [7] is 86%.
